Our source for the IC50 values is ChEMBL document CHEMBL4418308, “cGAS ANTAGONIST COMPOUNDS” (2017).

Some results are limits rather than exact numbers.

Experiment [1] concerns the target T1, Cyclic GMP-AMP synthase (Homo sapiens, UniProt Q8N884). Description: Inhibition of CGAS in human THP1 cells transfected with interferon stimulatory DNA and measured after 16 hrs by Gaussia luciferase reporter gene assay. Type of experiment: cell-based.
The target in experiment [2] is T1, Cyclic GMP-AMP synthase. Description: Inhibition of recombinant His6-SUMO tagged human CGAS expressed in Escherichia coli BL21/pLys cells incubated for 20 mins by Kinase Glo chemiluminescence assay.
The target in experiment [3] is T1, Cyclic GMP-AMP synthase. As to the kind of experiment: Inhibition of CGAS in human THP1 cells transfected with mock Sendai virus and measured after 16 hrs by Gaussia luciferase reporter gene assay. The experiment is classed as cell-based.

T1 sequence (Q8N884 whole entry): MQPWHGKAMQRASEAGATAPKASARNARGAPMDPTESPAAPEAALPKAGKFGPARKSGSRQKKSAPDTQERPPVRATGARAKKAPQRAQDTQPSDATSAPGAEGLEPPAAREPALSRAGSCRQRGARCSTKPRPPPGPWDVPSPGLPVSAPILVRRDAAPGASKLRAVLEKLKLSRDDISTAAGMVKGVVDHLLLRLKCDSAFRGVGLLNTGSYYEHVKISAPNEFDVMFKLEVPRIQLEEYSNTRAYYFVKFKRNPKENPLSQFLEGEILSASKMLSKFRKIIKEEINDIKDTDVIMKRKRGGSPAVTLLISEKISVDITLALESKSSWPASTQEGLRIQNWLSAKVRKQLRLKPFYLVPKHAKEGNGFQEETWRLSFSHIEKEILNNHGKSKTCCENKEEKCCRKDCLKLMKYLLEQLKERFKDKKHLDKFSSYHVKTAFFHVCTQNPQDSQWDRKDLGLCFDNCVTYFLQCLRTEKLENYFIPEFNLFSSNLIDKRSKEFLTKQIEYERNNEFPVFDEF

On to `CN1C(=O)S/C(=C\c2cc(OCc3cnc(Cl)nc3N)c(O)c(F)c2Br)C1=O`, for which the IC50 in experiment [1] is 2500 to 10000 nM; in experiment [2], ≤ 500 nM.
As to `O=C1/C(=C/c2cc(OC(F)(F)F)c(O)cc2Br)Sc2ncccc21`, the IC50 in experiment [1] is 2500 to 10000 nM; in experiment [2], 500 to 10000 nM; in experiment [3], ≥ 10 µM.
For the molecule `CN1C(=O)S/C(=C\c2cc(OCc3cnc(N)nc3)c(O)cc2Br)C1=O`, the IC50 in experiment [1] is ≤ 2500 nM; in experiment [2], ≤ 500 nM; in experiment [3], ≥ 10 µM.
Regarding `CCOc1cc(/C=C2\Sc3ncccc3C2=O)c(Br)cc1O`, the 50% inhibitory concentration (IC50) in experiment [1] was 2500 to 10000 nM; in experiment [2], ≤ 500 nM.
The matching figures for `O=C1/C(=C/c2cc(OCc3cccnc3)c(O)cc2Br)Sc2ncccc21`: 2500 to 10000 nM and ≤ 500 nM.
In the case of `CN1C(=O)S/C(=C\c2cc(OCc3cnc(NCc4ccccn4)nc3)c(O)cc2Br)C1=O`, the concentration for half-maximal inhibition (IC50) was 2500 to 10000 nM in experiment [1], ≤ 500 nM in experiment [2] and ≥ 10 µM in experiment [3].
The corresponding values for `CN1C(=O)S/C(=C\c2cc(OCc3cnc(NN)nc3)c(O)cc2Br)C1=O` are ≤ 2500 nM, ≤ 500 nM and ≥ 10 µM.
As for `CC(Oc1cc(/C=C2\SC(=O)N(C)C2=O)c(Br)cc1O)c1cncnc1N` (centres undefined), the figures for the IC50 in experiment [1], in experiment [2] and in experiment [3] were 2500 to 10000 nM, ≤ 500 nM and ≥ 10 µM, respectively.
For `CNc1ncc(COc2cc(/C=C3\SC(=O)N(C)C3=O)c(Br)cc2O)cn1`, the IC50 in experiment [1] was ≤ 2500 nM; in experiment [2], ≤ 500 nM; in experiment [3], ≥ 10 µM.
Consider `Nc1ncc(COc2cc(/C=C3\Sc4ncccc4C3=O)c(Br)c(F)c2O)cn1`, for which the IC50 is ≤ 2500 nM in experiment [1], ≤ 500 nM in experiment [2] and ≥ 10 µM in experiment [3].
Turning to `CN1C(=O)S/C(=C\c2cc(OCc3cnc([S+](C)[O-])nc3N)c(O)c(F)c2Br)C1=O` (centres undefined), the concentration for half-maximal inhibition (IC50) in experiment [1] is ≥ 10000 nM; in experiment [2], ≤ 500 nM.
As to `CN1C(=O)S/C(=C\c2cc(OCc3cnc(Cl)nc3)c(O)cc2Br)C1=O`, the IC50 was 2500 to 10000 nM in experiment [1], ≤ 500 nM in experiment [2] and ≥ 10 µM in experiment [3].
For the molecule `COc1cc(/C=C2\Sc3ncccc3C2=O)c(Br)c(F)c1O`, the IC50 in experiment [1] is 2500 to 10000 nM; in experiment [2], ≤ 500 nM; in experiment [3], ≥ 10 µM.
Regarding `CN1C(=O)S/C(=C\c2cc(OCc3cnc(NCc4cccnc4)nc3)c(O)cc2Br)C1=O`, the half-inhibitory concentration (IC50) was 2500 to 10000 nM in experiment [1], ≤ 500 nM in experiment [2] and ≥ 10 µM in experiment [3].
`CN1C(=O)S/C(=C\c2cc(OCc3cnc(NC4CC4)nc3)c(O)cc2Br)C1=O`: the half-inhibitory concentration (IC50) in experiment [1] is ≤ 2500 nM; in experiment [2] it was 500 to 10000 nM; in experiment [3], ≥ 10 µM.
As to `CN1C(=O)S/C(=C\c2cc(OCc3cncnc3)c(O)c(F)c2Br)C1=O`, the IC50 in experiment [1] was 2500 to 10000 nM; in experiment [2] it was ≤ 500 nM.
The corresponding values for `Cc1nc(N)ncc1COc1cc(/C=C2\Sc3ncccc3C2=O)c(Br)cc1O` are ≤ 2500 nM and ≤ 500 nM.
In the case of `COCCNc1ncc(COc2cc(/C=C3\SC(=O)N(C)C3=O)c(Br)c(F)c2O)cn1`, the IC50 in experiment [1] is 2500 to 10000 nM; in experiment [2], ≤ 500 nM; in experiment [3], ≥ 10 µM.
The matching figures for `CN1C(=O)S/C(=C\c2cc(OCc3cn[nH]c3)c(O)cc2Br)C1=O`: ≤ 2500 nM, ≤ 500 nM and ≥ 10 µM.
The corresponding values for `Nc1ncncc1COc1cc(/C=C2\Sc3ncccc3C2=O)c(Br)cc1O` are 2500 to 10000 nM, ≤ 500 nM and ≥ 10 µM.
Turning to `CN1C(=O)S/C(=C\c2cc(OCc3cnc4ccccc4c3)c(O)cc2Br)C1=O`, the IC50 in experiment [1] was 2500 to 10000 nM; in experiment [2], ≥ 10000 nM; in experiment [3], ≥ 10 µM.
On to `Nc1ncc(COc2cc(/C=c3\sc4nccn4c3=O)c(Br)cc2O)cn1`, for which the IC50 in experiment [1] is ≤ 2500 nM; in experiment [2], 500 to 10000 nM.
The matching figures for `CC(Oc1cc(/C=C2\SC(=O)N(C)C2=O)c(Br)c(F)c1O)c1cncnc1N` (centres undefined): ≥ 10000 nM and 500 to 10000 nM.
The matching figures for `CC(Oc1cc(/C=C2\Sc3ncccc3C2=O)c(Br)cc1O)c1cnc(NCCO)nc1` (centres undefined): 2500 to 10000 nM and ≤ 500 nM.
On to `CN1C(=O)S/C(=C\c2cc(OCC3CCCCC3)c(O)cc2Br)C1=O`, for which the half-maximal inhibitory concentration (IC50) in experiment [1] was 2500 to 10000 nM; in experiment [2] it was ≥ 10000 nM; in experiment [3], 2.5 to 10 µM.
The corresponding values for `CN1C(=O)S/C(=C\c2cc(OCc3cnc(N)nc3)c(O)c(F)c2Br)C1=O` are ≤ 2500 nM, ≤ 500 nM and ≥ 10 µM.
Regarding `CN1C(=O)S/C(=C\c2cc(OCc3cnc(Cl)nc3)c(O)c(F)c2Br)C1=O`, the IC50 in experiment [1] was 2500 to 10000 nM; in experiment [2] it was ≥ 10000 nM.
Turning to `Cc1nc(N)ncc1COc1cc(/C=C2\SC(=O)N(C)C2=O)c(Br)cc1O`, the IC50 in experiment [1] is ≤ 2500 nM; in experiment [2] it was ≤ 500 nM; in experiment [3], ≥ 10 µM.
